Results from patent US11565998B2, “Succinate prodrug, compositions containing the succinate prodrug and uses thereof” (ABLIVA AB, priority 2019, dated 2023).
In brackets after ≈: the same amount, converted by molar mass.

How the values were obtained:
[1] = system: microsomes (Sekisui XenoTech); assay: Succinate release on incubation with microsomes (LCMS); format: in vitro ADME; conditions: for Compound 1 detected by LCMS: microsomes 0.5 mg/mL, NADPH, malonate
Description: In brief, a stock of Compound 1 Batch 12 was prepared in 50/50 DMSO/MeCN (200 mM, ×200). This mixture was then diluted 1 in 10 into microsome buffer (20 mM, ×20) consisting of K2HPO4 (Sigma Aldrich, 13.9 g/L, anhydrous), KH2PO4 (Sigma Aldrich, 2.72 g/L, anhydrous), MgCl2.6H2O (Fisher, 1.02 g/L) and EDTA (Sigma Aldrich, 0.375 g/L) dissolved in HPLC grade water. A 200 mM malonic acid (Sigma Aldrich) stock was then prepared in microsome buffer (200 mM, ×20). A 20 mM NADPH stock was also prepared in microsome buffer (20 mM, ×10). A stock of microsomes (Sekisui XenoTech, 0.625 mg/ml) was prepared in a 7 ml vial. Samples were prepared for each timepoint (T=0, 5, 15, 60 mins) as follows: 80 μL microsome stock (0.5 mg/mL final concentration), 5 μL of Compound stock ([…]), 5 μL of malonate stock (10 mM final concentration). The T=0 sample was quenched by adding 100 μL MeOH. Reaction of all timepoints was then initiated with addition of 10 μL NADPH stock (2 mM final concentration). At each timepoint, the reaction was terminated by the addition of 100 μL MeOH. Samples were shaken for 1 min, placed on ice for 10 min, then centrifuged at 3000 rpm for 10 minutes. The supernatant was then analysed by LCMS.

[2] = In vivo pharmacokinetic studies
[3] = Carbonate concentration dependence; format: physicochemical; conditions: HPLC water, 1 mg/ml
Description: Compound 1 Batch 14 (2-3 mg) was dissolved in HPLC grade water (1 mg/ml) containing different concentrations of calcium carbonate and samples were taken at different time intervals for HPLC analysis.

[4] = Aqueous formulations of Compound 1 (water, PBS, saline), concentration by HPLC; format: physicochemical; conditions: thermodynamic from solid
[5] = Solubility in aqueous formulations in comparison to other succinate prodrugs; format: physicochemical; conditions: thermodynamic from solid
Description: Solubility of Compound 1 in aqueous formulations in comparison to other succinate prodrugs was assessed by dissolving solid material in aqueous formulations and measuring the quantity in solution by HPLC (−MS). […] In many cases the max solubility of other prodrugs was lower than 100 uM. See Table 21 for example solubility data in PBS pH7.4 for other succinate prodrugs.

[6] = Solubility of batches of different crystallinity; format: physicochemical; conditions: HPLC-grade water, water, thermodynamic from solid, mainly amorphous material (as worded, refers to Example 10); read-out: aqueous solubility
Description: Two batches of Compound 1 were generated with different crystallinity. Batch 2 had higher crystallinity than Batch 3, which is regarded as having a higher degree of amorphous Compound 1-Batch 2 is therefore regarded as a more crystalline batch, whereas Batch 3 is regarded as a more amorphous batch. The methods used are discussed in this document.
A sample of the more amorphous Compound 1 batch 3 was added to PBS or water to a final concentration of 258 mg/mL and sonicated for 10 minutes, then shaken for 30 minutes.
A sample of the more crystalline Compound 1 batch 2 was added to HPLC-grade water (Fisher) to a final concentration of 30 mg/mL and sonicated for 10 minutes, then shaken for 30 minutes.
A sample of the more crystalline Compound 1 batch 2 was added to HPLC-grade water (Fisher) to a final concentration of 52 mg/mL and sonicated for 20 minutes, then shaken for 1 hour.
A sample of the more crystalline Compound 1 batch 2 was added to HPLC-grade water (Fisher) to a final concentration of […] and sonicated for 20 minutes, then shaken for 1.5 hours.

[7] = Caco-2 bioavailability in vitro assay (apparent permeability); format: in vitro ADME; conditions: human; Caco-2, apical to basolateral, 0.01 mM, pH 7.4, 1 h, 37° C.
Description: (§1) The cell penetrance and potential for oral bioavailability of Compound 1 was tested using a standard caco-2 bioavailability in vitro assay (in brief, confluent Caco-2 cells (L1, A. P., 1992; Grass, G. M; et al., 1992, Volpe, D. A., et al., 2001) in a 24 well Corning Costar Transwell format were provided by In Vitro Technologies Inc. (IVT Inc., Baltimore, Md., USA). The apical chamber contained 0.15 mL Hank's balanced buffer solution (HBBS) pH 7.4, 1% DMSO, 0.1 mM Lucifer Yellow. The basal chamber contained 0.6 mL HBBS pH 7.4, 1% DMSO. Controls and tests were incubated at 37° C. in a humidified incubator, shaken at 130 rpm for 1 h. Lucifer Yellow permeates via the paracellular (between the tight junctions) route only, a high Apparent Permeability (Papp) for Lucifer Yellow indicates cellular damage during assay and all such wells were rejected. Propranolol (good passive permeation with no known transporter effects) & acebutalol (poor passive permeation attenuated by active efflux by P-glycoprotein) were used as reference compounds. Compounds were tested in a uni- and bi-directional format by applying compound to the apical or basal chamber (at 0.01 mM). Compounds in the apical or basal chambers were analysed by HPLC-MS. Results were expressed as Apparent Permeability, Papp, (nm/s), in comparison to other succinate prodrugs, including a number from WO2015/155231.

Caco-2 cells = assay: as above; format: in vitro ADME; conditions: Caco-2
Description: as §1

- succinic acid release ([1]; incubated with microsomes): releases succinic acid over time
- Compound 1 detected by LCMS ([1]; batch 12, 0 min): 0.934 mM
- Compound 1 detected by LCMS ([1]; batch 12, 5 min): 0.688 mM
- Compound 1 detected by LCMS ([1]; batch 12, 15 min): 0.388 mM
- Compound 1 detected by LCMS ([1]; batch 12, 60 min): 0.080 mM
- brain penetration [2]: brain penetrant
- oral bioavailability [2]: high oral bioavailability
- Percentage of Compound 1 remaining compared to T = 0 ([3]; CaCO3 (0 mM), batch 14, day 0): 100%
- Percentage of Compound 1 remaining compared to T = 0 ([3]; CaCO3 (0 mM), batch 14, day 7): 98.7%
- Percentage of Compound 1 remaining compared to T = 0 ([3]; CaCO3 (0 mM), batch 14, day 14): 98.6%
- Percentage of Compound 1 remaining compared to T = 0 ([3]; CaCO3 (0.425 mM), batch 14, day 0): 100%
- Percentage of Compound 1 remaining compared to T = 0 ([3]; CaCO3 (0.425 mM), batch 14, day 7): 98.1%
- Percentage of Compound 1 remaining compared to T = 0 ([3]; CaCO3 (0.425 mM), batch 14, day 14): 98.4%
- Percentage of Compound 1 remaining compared to T = 0 ([3]; CaCO3 (0.85 mM), batch 14, day 0): 100%
- Percentage of Compound 1 remaining compared to T = 0 ([3]; CaCO3 (0.85 mM), batch 14, day 7): 97.8%
- Percentage of Compound 1 remaining compared to T = 0 ([3]; CaCO3 (0.85 mM), batch 14, day 14): 97.1%
- Percentage of Compound 1 remaining compared to T = 0 ([3]; CaCO3 (1.7 mM), batch 14, day 0): 100%
- Percentage of Compound 1 remaining compared to T = 0 ([3]; CaCO3 (1.7 mM), batch 14, day 7): 93.8%
- Percentage of Compound 1 remaining compared to T = 0 ([3]; CaCO3 (1.7 mM), batch 14, day 14): 90.8%
- Percentage of Compound 1 remaining compared to T = 0 ([3]; CaCO3 (3.4 mM), batch 14, day 0): 100%
- Percentage of Compound 1 remaining compared to T = 0 ([3]; CaCO3 (3.4 mM), batch 14, day 7): 83.4%
- Percentage of Compound 1 remaining compared to T = 0 ([3]; CaCO3 (3.4 mM), batch 14, day 14): 71.4%
- solubility ([4]; aqueous buffer, pH 7.4, aqueous media tested, room temperature (20-25° C.), read-out: aqueous solubility): ≥ 300 mg/mL
- solubility ([4]; water and aqueous systems, water, read-out: solubility): > 500 mg/mL
- solubility ([4]; water and aqueous systems, water, read-out: solubility (molar equivalent)): ~2100 mM
- solubility ([5]; 0.9% saline, saline or isotonic): > 500 mg/mL
- solubility ([5]; aqueous buffer, PBS (pH 7.4)): 190 mg/mL
- solubility ([5]; pH 7.4, aqueous buffer, PBS pH7.4): > 0.1 mM
- solubility ([5]; water): > 350 mg/mL
- solubility at 1.5 h [6]: 850 mg/mL (≈ 3640 mM)
- Papp A→B at 1 h, 0.01 mM [7]: 0.412 ×10⁻⁶ cm/s
- Apical to Basolateral transfer, rank among prodrugs tested (Caco-2 cells): highest
SMILES: COC(=O)CCC(=O)SCCNC(C)=O [Compound 1, Methyl 3-[(2-acetylaminoethylthio)carbonyl]propionate]
